# Biological target: jack bean urease (Canavalia ensiformis, UniProt P07374)
# Experiment: Urease inhibition in solution (modified Bremner procedure, purified jack bean urease in aqueous solution)
# Type: biochemical
# Conditions: commercial purified jack bean urease
# Procedure: Efficacy tests were conducted with jack bean urease. The procedure of Bremner (See. L. A. Douglas, J. M. Bremner, Soil Biology Biochem., 3, 859-859 (1970), and references cited therein was modified by replacing the soil as the source of urease with commercial purified jack bean urease. The incubation then proceeds in aqueous solution. The results are set forth in the following Table I.
# Sequence of jack bean urease (P07374 whole entry, looked up): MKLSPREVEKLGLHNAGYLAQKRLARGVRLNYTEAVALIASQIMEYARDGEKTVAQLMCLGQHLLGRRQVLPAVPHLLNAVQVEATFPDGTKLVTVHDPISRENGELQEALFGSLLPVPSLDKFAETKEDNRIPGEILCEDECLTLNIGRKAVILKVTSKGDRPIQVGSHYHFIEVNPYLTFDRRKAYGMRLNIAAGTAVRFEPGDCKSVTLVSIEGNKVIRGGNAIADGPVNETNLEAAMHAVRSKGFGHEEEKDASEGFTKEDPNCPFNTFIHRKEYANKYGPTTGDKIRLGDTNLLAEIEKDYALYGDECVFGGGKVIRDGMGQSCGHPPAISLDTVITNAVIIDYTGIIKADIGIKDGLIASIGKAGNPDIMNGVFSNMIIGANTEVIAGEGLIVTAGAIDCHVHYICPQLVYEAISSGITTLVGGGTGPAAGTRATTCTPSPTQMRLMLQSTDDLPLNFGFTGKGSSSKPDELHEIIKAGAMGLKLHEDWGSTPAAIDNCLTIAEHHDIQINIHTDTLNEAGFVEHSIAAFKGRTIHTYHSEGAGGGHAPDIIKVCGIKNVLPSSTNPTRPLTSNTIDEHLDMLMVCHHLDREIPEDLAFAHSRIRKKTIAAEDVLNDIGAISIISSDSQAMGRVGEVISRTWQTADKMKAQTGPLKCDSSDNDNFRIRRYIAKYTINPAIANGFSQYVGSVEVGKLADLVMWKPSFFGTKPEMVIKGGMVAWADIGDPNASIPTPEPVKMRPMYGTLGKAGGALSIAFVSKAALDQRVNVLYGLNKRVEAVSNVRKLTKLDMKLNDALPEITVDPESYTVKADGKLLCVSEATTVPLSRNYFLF
smiles,measurement,setting,value
NP(N)(=O)NC(=O)c1ccc(N2C(=O)C=CC2=O)cc1 [N-(diaminophosphinyl)-4-(1'-maleimido)benzamide],inhibition at 1 µM,"compound at 10^-6 M, read-out: % Inhibition at Specific Concentration 10^-6 M",59%
same,inhibition at 0.1 µM,"compound at 10^-7 M, read-out: % Inhibition at Specific Concentration 10^-7 M",8%

# — US4528020A, “Urease inhibited urea based fertilizer compositions” (Allied Corporation, priority 1983, dated 1985)
